Assay results from patent publication US20220177511A1, “SERIES OF HALOGENATED TETRACYCLIC TRITERPENE DERIVATIVES AND THEIR PREPARATION AND APPLICATION” (SHANGHAI KING-X BIOTECH CO., LTD, priority 2019, published 2022).
Entries after “also recorded” stand apart in the source; their conditions may differ. Where two headings read alike, the source gives them in different places.

Tests used:
[1] = Stability test of compound 2 in fresh rat whole blood; assay type: in vitro ADME; parameters: half-life: dose or concentration left out as unconfirmed
Experimental: Preparation of the tested product: Compound 2 was dissolved with an appropriate amount of dimethyl sulfoxide (DMSO) to obtain a 400 μM solution.
1) Fresh rat whole blood is added to the EP tube and shaken gently to mix.
2) Pre-incubate the EP tube in a water bath at 37° C. for 5 minutes.
3) Add Compound 2 and incubate at 37° C.
4) Every 50 μL of sample was taken from the sample tube to the stop tube (containing 5 μL internal standard, 5 μg/mL tolbutamide) at 0, 3 min, 6 min, 15 min, 30 min, and 60 min. 150 μL of acetonitrile was added and shaked to stop reaction, which was incubated in PBS system for 0 and 60 min.
5) Centrifuge for 5 min at 4° C. (13000 r/min), aspirate the supernatant, and analyze the sample.
(§1) 50 μL of rat whole blood was added with 5 μL of internal standard working solution (5 μg/mL tolbutamide). 150 μL of acetonitrile was used to precipitate the proteins. The sample was centrifuged at 13,000 rpm and 4° C. for 5 min. The upper organic phase was taken and filtered with a 0.22 μM microporous membrane, which was then analyzed by LC-MS/MS. […]
The In residual rate of compound 2 in the incubation system was plotted against the incubation time, and the slope k was obtained by linear regression. T1/2 (min) was calculated according to the formula (T1/2=−0.693/k).

[2] = Plasma pharmacokinetics after single intragastric administration in rats; assay type: in vivo, SD rat; conditions: for AUC0-t / AUC(0-inf) / CL/F / Cmax / Tmax / half-life / MRT inf / Vd/F: single gavage 10 mg/kg, Mean ± SD; for bioavailability: SD, single gavage 10 mg/kg vs intravenous 2 mg/kg; for MRT inf: read-out: MRT0-∞; for Vd/F: read-out: Vz/F
Experimental: Strain: SD rat; Gender: half male and female. Weight: about 200-250 g. Source: Shanghai Slac Laboratory Animal Co., Ltd. Laboratory Animal Production License No.: SOCK (Shanghai) 2017-0005. Laboratory Animal Use License Certificate number: SYXK (Shanghai) 2014-0018. Breeding: constant temperature purification and ventilation animal room, 20-26° C., free food and water, humidity 40-70%, light for 12 h.
Route A: single oral administration. Volume: calculated according to 10 mL/kg body weight. Preparation: an appropriate amount of compound 2 is added to a small amount of 0.5% CMC-Na and grinded, and another portion of 0.5% CMC-Na was added to form a suspension.
12 SD rats were divided into 2 groups, 6 rats in each group, […]. Fasting for 12 h before administration, free drinking water. The doses of 10 mg/kg were administered as a single gavage, and the doses of 2 mg/kg were administered as a single intravenous injection. About 100 μL orbital blood was collected before administration, 3 min, 10 min, 20 min, 30 min, 1 h, 2 h, 3 h, 4 h, 6 h, 8 h, 11 h, and 24 h after administration. For intravenous administration, orbital blood was collected before administration, 3 min, 8 min, 15 min, 30 min, 1 h, 2 h, 3 h, 4 h, 6 h, 8 h, 11 h, 24 h after injection. The blood was anticoagulated with 1% heparin, centrifuged at 8000 rpm for 4 min, and the plasma was separated. Store at −20° C. High concentration samples were diluted with blank plasma. 2.1.4 Determination method of plasma samples 2.1.4.1 Instrument (LC-MS/MS)
Liquid chromatography system: Ultimate3000 liquid chromatography system (including Ultimate3000 ternary infusion pump, Ultimate3000 column oven, Ultimate3000 autosampler and Ultimate3000 vacuum degasser), Dionex Corporation. MS/MS system: 4000 Q-Trap tandem mass spectrometer with electrospray ionization source (ESI source), AB Company
Column: Athena C18-WP 100A (2.1×50 mm, 5 μm); Injection volume: 10 μL; Mobile phase: A: acetonitrile; C: 0.05% ammonia, gradient elution (see table below); Flow rate: 0.3 mL/min
The ion source is electrospray ionization source (ESI), the drying gas (N2) temperature is 500° C., the electrospray voltage is −4500 V, the detection method is negative ion detection, the scanning method is the […] (MRM) method and the scanning time is 0.15 s. The mass spectrometry parameters are as follows:
as §1, with “with 2.5” for “with 5”, “solution (250 ng/mL” for “solution (5 μg/mL”

[3] = Metabolic stability in human liver microsomes; assay type: in vitro ADME
Experimental: Preparation of the test sample: Compound 1 (prepared in Example 5), 2 (prepared in Example 4), and 5 (cycloastragenol, purchased from Chengdu Jintaihe Company) were dissolved with an appropriate amount of DMSO to obtain a concentration of 10 mM solution.
1) The compound was diluted with DMSO to 0.5 mM, and diluted to 1/20 with PBS before the experiment.
2) Human liver microsomes and potassium phosphate buffer were added to the EP tube respectively and mixed by gentle shaking.
3) Pre-incubate the EP tube in a metal bath at 37° C. for 5 minutes. 4) Compound 1, 2 or 5 were added and incubated at 37° C.
5) Take 100 μl of sample from the tube at 0, 60, 120, 240, and 360 minutes respectively, and add the sample to the stop tube (containing 100 μl of cooled acetonitrile solution). The mixture was shaken vigorously to terminate the reaction and then placed it in a −30° C. refrigerator until analysis.
6) Centrifuge at 14300 r/min and 4° C. for 10 minutes, aspirate the supernatant and place it in a −30° C. refrigerator until analysis.
Column: Shim-pack XR-ODS II, 2.0×75 mm; mobile phase: mobile phase B: aqueous solution containing 0.2% formic acid; mobile phase A: acetonitrile solution; mobile phase ratio: […]

[4] = both sexes, rat, plasma, po, all rats (♂ and ♀)
[5] = female, rat, plasma, po, rats ♀

Which results are given for CC(C)(O)[C@@H]1CC[C@](C)([C@H]2[C@@H](O)C[C@@]3(C)[C@@H]4C[C@H](O)[C@H]5C(C)(C)C(F)(F)CC[C@@]56C[C@@]46CC[C@]23C)O1 [Compound 2, (2aR,3R,4S,5aS,5bS,7S,7aR,11aR,12aS)-9,9-difluoro-3-((2R,5S)-5-(2-hydroxypropan-2-yl)-2-methyltetrahydrofuran-2-yl)-2a,5a,8,8-tetramethyltetradecahydro-1H,12H-cyclopenta[a]cyclopropa[e]phenanthrene-4,7-diol]?
half-life ([1]; fresh rat whole blood, rat whole blood, 37° C., 0-60 min, read-out: In vitro T1/2): 10.7 h; stability in rat whole blood ([1]; incubation 3, 6, 15, 30 and 60 min): relatively stable; AUC0-t ([2]; all rats (♂ and ♀), 10 mg/kg): 1916 ng·h/mL; bioavailability ([2]; both sexes, rat, plasma, po, all rats (♂ and ♀), read-out: F (mean absolute bioavailability)): 22%; AUC(0-inf) [2, 4]: 2450 ± 3070 ng·h/mL; CL/F [2, 4]: 140 mL/min/kg; Cmax [2, 4]: 323 ng/mL; Tmax [2, 4]: 2.17 h; half-life [2, 4]: 2.89 h; AUC0-t ([2]; both sexes, rat, plasma, po, all rats (♂ and ♀), read-out: AUC0-t): 1920 ng·h/mL; MRT inf [2, 4]: 4.4 ± 1.28 h; Vd/F [2, 4]: 27.9 ± 19 L/kg; bioavailability ([2]; female, rat, plasma, po, rats ♀, read-out: F (absolute bioavailability)): 28.4%; AUC(0-inf) [2, 5]: 4040 ± 3990 ng·h/mL; CL/F [2, 5]: 71.2 mL/min/kg; Cmax [2, 5]: 459 ± 277 ng/mL; Tmax [2, 5]: 2.33 ± 0.58 h; half-life [2, 5]: 3.64 ± 2.54 h; AUC0-t ([2]; female, rat, plasma, po, rats ♀, read-out: AUC0-t): 3000 ± 2430 ng·h/mL; MRT inf [2, 5]: 5.01 ± 1.71 h; Vd/F [2, 5]: 15.8 ± 9.24 L/kg; bioavailability ([2]; male, rat, plasma, po, rats ♂, read-out: F (absolute bioavailability)): 15.6%; AUC(0-inf) ([2]; male, rat, plasma, po, rats ♂): 859 ± 297 ng·h/mL; CL/F ([2]; male, rat, plasma, po, rats ♂): 208 mL/min/kg; Cmax ([2]; male, rat, plasma, po, rats ♂): 187 ± 37 ng/mL; Tmax ([2]; male, rat, plasma, po, rats ♂): 2 ± 1 h; half-life ([2]; male, rat, plasma, po, rats ♂): 2.14 ± 0.64 h; AUC0-t ([2]; male, rat, plasma, po, rats ♂, read-out: AUC0-t): 831 ng·h/mL; MRT inf ([2]; male, rat, plasma, po, rats ♂): 3.78 ± 0.24 h; Vd/F ([2]; male, rat, plasma, po, rats ♂): 40 ± 19.5 L/kg; metabolic stability in human liver microsomes ([3]; compared with compound 5 (cycloastragenol)): relatively stable; also recorded: more stable than cycloastragenol; half-life at 5 µM ([3]; human, liver microsomes, 5 μM compound, 1 mg/mL microsomes, 37° C.): 7.3 h
